Here are results for one compound from patent US20230022880A1, “Antimicrobial Composition” (INSTITUTE OF TECHNOLOGY SLIGO, priority 2019, published 2023).

Each structure is given as a SMILES string.

For the experiment, the system named is several species of micro-organisms (Candida spp, Pseudomonas spp, E. coli). Put plainly: Well diffusion bioassay, zones of inhibition. The settings on record: NaCl tested on its own. It counts as cell-based. The protocol: Escherichia coli (NCIMB 8545), Staphylococcus aureus (NCIMB 9518) and Pseudomonas aeruginosa (NCIMB 8626) are grown on nutrient agar or in nutrient broth for 24 hrs at 37° C.
Candida albicans (NCIMB 3179) and Saccharomyces cerevisiae are grown on sabaroud dextrose agar or in sabaroud dextrose broth for 24 hrs at 37° C. […]
Bacterial growth is monitored by measuring the culture optical density (OD) in a spectrophotometer (Anthos 2010) at a wavelength of 620 nm.
The formulations were assessed for antimicrobial activity against several species of micro-organisms (several of which produce catalase; Candida spp, Pseudomonas spp, E. coli) using the well diffusion bioassay, results were obtained by measuring the zones of inhibition (n=3).
Agar plates are inoculated by swabbing overnight culture onto the plate surface. Plates are allowed to stand at room temperature for 15 minutes before use. Wells 8.2 mm diameter are bored into the surface of the agar. A 180 μl sample is placed into each well. The samples diffuse into the agar around the well and are assayed for an ability to produce a zone of inhibition. Plates are incubated for 24, 48 or 72 hrs and zones of inhibition are measured using an Autodata automatic zone reader. The diameter of zones, including the diameter of the well (8.2 mm), is recorded. […]
A general note: Agar diffusion results depend on both activity and mobility in agar.

Consider `[Cl-].[Na+]` [NaCl, sodium chloride], for which the Antimicrobial activity entry is on record as “no discernible activity”.
